What was measured:
[1] = biological target: Adenosine A2B (ADORA2B) receptor (Homo sapiens (Human), UniProt P29275); experiment: ADORA2B Receptor Binding Assay; details: radioligand binding, membrane stock
Experimental: ADORA2B Receptor Binding Assay
100 μL of Adenosine A2B membrane stock was dispensed into individual wells of an assay plate. 1 μL of each compound (test compounds, high control compound, low control compound) was then transferred into individual wells, followed by 100 μL of radio-labeled ligand. Plates were then sealed, and incubated at room temperature for 1 hour. Unifilter-96 GF/C filter plates were pre-soaked with 50 μL of 0.5% BSA per well for at least 30 min at room temperature. When binding assays were completed, reaction mixtures were filtered through GF/C plates using a Perkin Elmer Filtermate Harvester, and then each plate was washed 4× with cold wash buffer. Filter plates were then dried for 1 hour at 50° C. After drying, the bottom of the filter plate wells was sealed using Perkin Elmer Unifilter-96 backing seal tape. 50 μL of Perkin Elmer Microscint 20 cocktail was then added, and the top of the filter plate was then sealed using Perkin Elmer TopSeal-A sealing film. ^3H trapped on the filter was counted using a Perkin Elmer MicroBeta2 Reader. Data analysis was performed using GraphPad Prism 5 software, and the “Inhibition[% Control]” was calculated using the following equation: % Inh=(1−Background subtracted Assay value/Background subtracted HC value)*100.

[2] = biological target: Adenosine A2a (ADORA2A) receptor (Homo sapiens (Human), UniProt P29274); experiment: ADORA2A Receptor Binding Assay; details: radioligand binding, membrane stock
Experimental: ADORA1A and ADORA2A Receptor Binding Assay
2 μL of each compound (test compounds, high control compound, low control compound) was transferred into individual wells of an assay plate. Also to each individual well, 98 μL of Adenosine A1a membrane stock (for ADORA1A Receptor Binding Assay) or Adenosine A2a membrane stock (for ADORA2A Receptor Binding Assay) was dispensed, followed by 100 μL of radio-labeled ligand. Plates were then sealed, and incubated at room temperature for 1 hour (for ADORA1A Receptor Binding Assay) or 2 hours (for ADORA2A Receptor Binding Assay). Unifilter-96 GF/C filter plates were pre-soaked with 50 μL of 0.3% PEI per well for at least 30 min at room temperature. When binding assays were completed, reaction mixtures were filtered through GF/C plates using a Perkin Elmer Filtermate Harvester, and then each plate was washed 4× with cold wash buffer. Filter plates were then dried for 1 hour at 50° C. After drying, the bottom of the filter plate wells was sealed using Perkin Elmer Unifilter-96 backing seal tape. 50 μL of Perkin Elmer Microscint 20 cocktail was then added, and the top of the filter plate was then sealed using Perkin Elmer TopSeal-A sealing film. ^3H trapped on the filter was counted using a Perkin Elmer MicroBeta2 Reader. Data analysis was performed using GraphPad Prism 5 software, and the “Inhibition [% Control]” was calculated using the following equation: % Inh=(1−Background subtracted Assay value/Background subtracted HC value)*100.

Adenosine A2B (ADORA2B) receptor, sequence (P29275 whole entry): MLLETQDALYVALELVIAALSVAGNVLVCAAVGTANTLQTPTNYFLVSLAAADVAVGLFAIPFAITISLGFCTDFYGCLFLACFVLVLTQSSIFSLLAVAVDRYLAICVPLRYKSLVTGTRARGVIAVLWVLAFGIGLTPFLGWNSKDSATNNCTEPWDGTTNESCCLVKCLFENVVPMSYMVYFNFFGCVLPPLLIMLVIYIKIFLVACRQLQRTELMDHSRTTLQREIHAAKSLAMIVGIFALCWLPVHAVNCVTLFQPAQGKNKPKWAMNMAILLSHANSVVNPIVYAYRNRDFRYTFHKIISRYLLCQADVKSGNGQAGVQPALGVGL
Adenosine A2a (ADORA2A) receptor, sequence (P29274 whole entry): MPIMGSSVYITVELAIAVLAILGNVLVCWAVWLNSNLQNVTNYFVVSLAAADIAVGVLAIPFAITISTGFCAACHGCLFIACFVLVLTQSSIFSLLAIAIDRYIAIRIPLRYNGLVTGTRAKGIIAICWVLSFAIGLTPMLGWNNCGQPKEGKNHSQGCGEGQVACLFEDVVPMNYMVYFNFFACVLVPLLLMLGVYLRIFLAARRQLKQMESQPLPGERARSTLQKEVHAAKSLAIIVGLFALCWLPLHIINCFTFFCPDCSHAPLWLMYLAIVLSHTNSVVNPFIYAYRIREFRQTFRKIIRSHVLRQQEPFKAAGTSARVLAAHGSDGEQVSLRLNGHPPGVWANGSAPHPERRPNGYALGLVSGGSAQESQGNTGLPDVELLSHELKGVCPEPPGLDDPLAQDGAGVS

Row | IC50 [1] | IC50 [2] | SMILES
1 | 0.01 to 0.1 µM | < 0.01 µM | Cc1nc2c(-c3ccc(C)o3)nc(N)cn2n1 [Compound 168, 2-methyl-8-(5-methylfuran-2-yl)-[1,2,4]triazolo[1,5-a]pyrazin-6-amine]
2 | < 0.01 µM | < 0.01 µM | Cc1ccc(-c2nc(N)c(Cl)n3nc(C)nc23)cc1 [Compound 184, 5-chloro-2-methyl-8-(4-methylphenyl)-[1,2,4]triazolo[1,5-a]pyrazin-6-amine]
3 | 0.01 to 0.1 µM | < 0.01 µM | Cc1ccc(-c2nc(NC(=O)C3CC3)cc3nc(-c4ccco4)nn23)o1 [Compound 67, N-[2-(furan-2-yl)-5-(5-methylfuran-2-yl)-[1,2,4]triazolo[1,5-c]pyrimidin-7-yl]cyclopropanecarboxamide]
4 | < 0.01 µM | < 0.01 µM | Cc1nc2c(-c3ccc(C)o3)nc(N)c(Cl)n2n1 [Compound 175, 5-chloro-2-methyl-8-(5-methylfuran-2-yl)-[1,2,4]triazolo[1,5-a]pyrazin-6-amine]
5 | < 0.01 µM | < 0.01 µM | CC(C)c1nc2c(-c3ccco3)nc(NC(=O)C3CC3)cn2n1 [Compound 181, N-[8-(furan-2-yl)-2-propan-2-yl-[1,2,4]triazolo[1,5-a]pyrazin-6-yl]cyclopropanecarboxamide]
6 | 0.01 to 0.1 µM | < 0.01 µM | Cc1ccc(-c2nc3[nH]c(C(C)(C)O)cc3c3nc(C(C)C)nn23)o1 [Compound 162, 2-[7-(5-methylfuran-2-yl)-4-propan-2-yl-3,5,6,8,10-pentazatricyclo[7.3.0.0^2,6]dodeca-1(9),2,4,7,11-pentaen-11-yl]propan-2-ol]
7 | 0.1 to 1 µM | 0.01 to 0.1 µM | Cc1nc2c3c(nc(-c4ccc(C)o4)n2n1)NCC3(C)C [Compound 28, 4,12,12-trimethyl-7-(5-methylfuran-2-yl)-3,5,6,8,10-pentazatricyclo[7.3.0.0^2,6]dodeca-1(9),2,4,7-tetraene]
8 | < 0.01 µM | < 0.01 µM | COc1ccc(Cc2nc3cc(NC(=O)C4CC4)nc(-c4ccc(C)o4)n3n2)cc1 [Compound 4]
9 | < 0.01 µM | < 0.01 µM | CC(=O)Nc1cc2nc(CF)nn2c(-c2ccc(C)o2)n1 [Compound 127, N-[2-(fluoromethyl)-5-(5-methylfuran-2-yl)-[1,2,4]triazolo[1,5-c]pyrimidin-7-yl]acetamide]
10 | < 0.01 µM | < 0.01 µM | Cc1nc2cc(NC(=O)C(F)F)nc(-c3ccco3)n2n1 [Compound 144, 2,2-difluoro-N-[5-(furan-2-yl)-2-methyl-[1,2,4]triazolo[1,5-c]pyrimidin-7-yl]acetamide]
11 | 0.01 to 0.1 µM | < 0.01 µM | Nc1nc(-c2ccccc2)n2nc(C(F)F)nc2c1Cl [Compound 160, 8-chloro-2-(difluoromethyl)-5-phenyl-[1,2,4]triazolo[1,5-c]pyrimidin-7-amine]
12 | 0.01 to 0.1 µM | < 0.01 µM | O=C(Nc1cc2nc(C3COC3)nn2c(-c2ccco2)n1)C1CC1 [Compound 92, N-[5-(furan-2-yl)-2-(oxetan-3-yl)-[1,2,4]triazolo[1,5-c]pyrimidin-7-yl]cyclopropanecarboxamide]
13 | > 1 µM | < 0.01 µM | CN1CC(c2nc3cc(NC(=O)C4CC4)nc(-c4ccco4)n3n2)C1 [Compound 135, N-[5-(furan-2-yl)-2-(1-methylazetidin-3-yl)-[1,2,4]triazolo[1,5-c]pyrimidin-7-yl]cyclopropanecarboxamide]
14 | 0.01 to 0.1 µM | < 0.01 µM | Cc1cccc(-c2nc(N)c(Cl)n3nc(C)nc23)c1 [Compound 183, 5-chloro-2-methyl-8-(3-methylphenyl)-[1,2,4]triazolo[1,5-a]pyrazin-6-amine]
15 | 0.1 to 1 µM | 0.01 to 0.1 µM | COc1ccc(Cc2nc3cc(N)nc(-c4ccc(C)o4)n3n2)cc1 [Compound 3, 2-[(4-methoxyphenyl)methyl]-5-(5-methylfuran-2-yl)-[1,2,4]triazolo[1,5-c]pyrimidin-7-amine]
16 | 0.1 to 1 µM | 0.1 to 1 µM | Cc1nc2c(-c3ccccc3C)nc(N)c(Cl)n2n1 [Compound 182, 5-chloro-2-methyl-8-(2-methylphenyl)-[1,2,4]triazolo[1,5-a]pyrazin-6-amine]

Row | IC50 [1] | IC50 [2] | SMILES
17 | 0.1 to 1 µM | 0.1 to 1 µM | COc1ccc(-c2nc(NC(C)=O)cc3nc(C)nn23)cc1 [Compound 113, N-[5-(4-methoxyphenyl)-2-methyl-[1,2,4]triazolo[1,5-c]pyrimidin-7-yl]acetamide]
18 | > 1 µM | > 1 µM | Cc1nc2cc(NC(=O)N3CC[C@H](O)C3)nc(-c3ccco3)n2n1 [Compound 107, (3S)-N-[5-(furan-2-yl)-2-methyl-[1,2,4]triazolo[1,5-c]pyrimidin-7-yl]-3-hydroxypyrrolidine-1-carboxamide]
19 | < 0.01 µM | < 0.01 µM | Nc1nc(-c2ccccc2)c2nc(C(F)(F)F)nn2c1Cl [Compound 178, 5-chloro-8-phenyl-2-(trifluoromethyl)-[1,2,4]triazolo[1,5-a]pyrazin-6-amine]
20 | 0.01 to 0.1 µM | 0.01 to 0.1 µM | Cc1nc2c(Br)c(N)nc(-c3ccccc3)n2n1 [Compound 89, 8-bromo-2-methyl-5-phenyl-[1,2,4]triazolo[1,5-c]pyrimidin-7-amine]
21 | 0.1 to 1 µM | 0.01 to 0.1 µM | CC(C)c1cn2c(Cl)c(N)nc(-c3ccccc3)c2n1 [Compound 213, 5-chloro-8-phenyl-2-propan-2-ylimidazo[1,2-a]pyrazin-6-amine]
22 | > 1 µM | 0.01 to 0.1 µM | Cc1cccc(-c2nc(N)c(Cl)c3nc(C)nn23)n1 [Compound 76, 8-chloro-2-methyl-5-(6-methylpyridin-2-yl)-[1,2,4]triazolo[1,5-c]pyrimidin-7-amine]
23 | > 1 µM | 0.1 to 1 µM | CC(=O)Nc1cc2nc(C)nn2c(-c2cnco2)n1 [Compound 51, N-(2-methyl-5-(oxazol-5-yl)-[1,2,4]triazolo[1,5-c]pyrimidin-7-yl)acetamide]
24 | < 0.01 µM | < 0.01 µM | Cc1nc2c(Cl)c(N)nc(-c3ccc(C)o3)n2n1 [Compound 11, 8-chloro-2-methyl-5-(5-methylfuran-2-yl)-[1,2,4]triazolo[1,5-c]pyrimidin-7-amine]
25 | 0.01 to 0.1 µM | < 0.01 µM | Cc1nc2cc(NC(=O)NCCN3CCCCC3)nc(-c3ccco3)n2n1 [Compound 158, 1-[5-(furan-2-yl)-2-methyl-[1,2,4]triazolo[1,5-c]pyrimidin-7-yl]-3-(2-piperidin-1-ylethyl)urea]
26 | 0.01 to 0.1 µM | < 0.01 µM | Cc1ccc(-c2nc(NC(=O)C3CC3)cc3nc(C4COC4)nn23)o1 [Compound 110, N-[5-(5-methylfuran-2-yl)-2-(oxetan-3-yl)-[1,2,4]triazolo[1,5-c]pyrimidin-7-yl]cyclopropanecarboxamide]
27 | < 0.01 µM | < 0.01 µM | Cc1nc2c(Br)c(N)nc(-c3ccc(C)o3)n2n1 [Compound 16, 8-bromo-2-methyl-5-(5-methylfuran-2-yl)-[1,2,4]triazolo[1,5-c]pyrimidin-7-amine]
28 | 0.01 to 0.1 µM | < 0.01 µM | Cc1nc2c(Cl)c(N)nc(-c3cccc(Cl)c3)n2n1 [Compound 78, 8-chloro-5-(3-chlorophenyl)-2-methyl-[1,2,4]triazolo[1,5-c]pyrimidin-7-amine]
29 | > 1 µM | 0.1 to 1 µM | Cc1nc2cc(NC(=O)N3CC[C@@H](O)C3)nc(-c3ccco3)n2n1 [Compound 104, (3R)-N-[5-(furan-2-yl)-2-methyl-[1,2,4]triazolo[1,5-c]pyrimidin-7-yl]-3-hydroxypyrrolidine-1-carboxamide]
30 | 0.1 to 1 µM | 0.1 to 1 µM | CC(=O)c1cccc(-c2nc(NC(=O)C3CC3)cc3nc(C)nn23)c1 [Compound 96, N-[5-(3-acetylphenyl)-2-methyl-[1,2,4]triazolo[1,5-c]pyrimidin-7-yl]cyclopropanecarboxamide]
31 | 0.1 to 1 µM | 0.1 to 1 µM | Cc1cccc(-c2nc(N)c(Cl)n3cc(C)nc23)c1 [Compound 207, 5-chloro-2-methyl-8-(3-methylphenyl)imidazo[1,2-a]pyrazin-6-amine]
32 | > 1 µM | > 1 µM | Cc1nc2c(Cl)c(N)nc(-c3ccccc3Cl)n2n1 [Compound 84, 8-chloro-5-(2-chlorophenyl)-2-methyl-[1,2,4]triazolo[1,5-c]pyrimidin-7-amine]

Row | SMILES | IC50 [1] | IC50 [2]
33 | Cc1nc2cc(NC(=O)C3CC3)nc(-c3ccc(C)o3)n2n1 [Compound 2, N-(2-methyl-5-(5-methylfuran-2-yl)-[1,2,4]triazolo[1,5-c]pyrimidin-7-yl)cyclopropanecarboxamide] | < 0.01 µM | < 0.01 µM

From patent US11718622B2, “Heterocyclic adenosine receptor antagonists” (Exelixis, Inc., priority 2020, dated 2023)
